Laboratory results as given in US5625044A, “Methods for the preparation of pure homologous series of mono to tetra fatty acyl esters of sugars and pharmaceutical formulations useful in the treatment of cancer” (Goudreau Gage Dubec & Martineau, priority 1994, dated 1997).
“Also recorded” adds a separate entry of the source. One block for each molecule: values may come before it.

How the values were obtained:
[1] = Tolerance and immunosuppression of angiostatic steroids
Method: The doses were: 150 mg/kg of body weight/day for the first two days, 125 mg/kg of body weight/day for the next two days, 100 mg/kg of body weight/day for the next two days, and then a maintenance dose of 75 mg/kg of body weight/day was used for the remaining duration of the treatment, for a total of 20-25 days. […] Therefore, the dosage rate of steroids might also be adjusted, according to the patients' response, which is left to the clinician;

[2] = in vivo; cited from earlier work
[3] = tested on: cultured endothelial cells; type: in vitro ADME
[4] = tested on: Naik As cells; test: In vitro growth inhibition of angiosarcoma cell line Naik-AS; type: cell-based
From the text: The in vitro growth of an angiosarcoma cell line (Naik-AS) developed by us was studied in the presence and absence of maltose tri- and tetrapalmitates.

[5] = tested on: C3HBA; test: Antitumor activity of maltose palmitates against C3HBA fragment implanted s.c. in C3H/HeN females; type: in vivo, C3H/HeN mice; settings: ip. 3 times weekly, 10 μg (individual palmitates)
From the text: The scientific and patent literature on tri-fatty acyl disaccharides is non existent. This compound has not been obtained as a single entity. The compound forms complexes and rarely appeared as a pure band in our investigations. However, when the mixture is subjected to HPLC as described in I, we obtain sufficient quantities of di, tri and tetra palmitates. This allowed us to test each of these components individually and in combinations. Briefly, the following results were obtained using C3HBA fragment implanted s.c. in C3H/HeN females.

[6] = Degradation of labelled maltose palmitates in tissues (14C/3H ratio of ethanolic extract); parameters: species or system mice; settings: mouse, in vivo
Method: The ^3 H-palmitoyl chloride and the ^14 C-maltose (as prepared earlier) were mixed in a total volume of 500 μl of dimethyl formamide (DMF). To the mixture was added 100 μl pyridine and the contents were heated for 14 h at 60° C. in a nitrogen atmosphere. The product was then evaporated under reduced pressure at 60° C. to remove the solvents. It was dissolved in 400 μl of absolute ethanol. Pyridine hydrochloride was removed by adding the dissolved crude reaction product to 1 ml ice cold water in an Eppendorf tube. The resulting suspension was centrifuged at 4° C. for 10 min and the supernatant was discarded. The product was dried for 48 hours in a vacuum desiccator and then was extracted with three 10 μl portions of methanol at room temperature. The methanol extract was subjected to reverse phase HPLC using a methanol eluent and detection at 214 nm at a flow rate of 0.5 ml/min and a 3.9 mn×15 cm Waters Resolve C18 5μ column. Two components eluting at 19.1 and 24.1 min which corresponded to the two isomers of maltose tetrapalmitate were collected. […] The tissue extracts were analyzed for ^3 H and ^14 C for non metabolized MTP and its degradation products by scintillation counting. […]
The ratio of degradation calculated on the basis of slope of ^14 C/^3 H ratio between 24 h and 48 h, in ethanolic extract indicated the following order of degradation, with liver taken as 100: […]

[7] = tested on: tumor cells; test: Antitumor activity of individual maltose palmitates (summary statements); type: in vivo; settings: comparison of maltose palmitates
[8] = rodents, 150 down to 75 mg/kg of body weight/day, 20-25 days

SMILES: CC(=O)[C@@]1(O)CC[C@H]2[C@@H]3CCC4=CC(=O)CC[C@]4(C)[C@H]3CC[C@@]21C [17-β-OH progesterone]
tolerance at high doses [1, 8]: rodents tolerate them

SMILES: C[C@]12CCC(=O)C=C1CC[C@@H]1[C@@H]2CC[C@@]2(C)[C@H]1CC[C@]2(O)C(=O)CO [cortexolone]
tolerance at high doses ([1]; in vivo): rodents tolerate them

SMILES: C[C@]12CCC(=O)C=C1CC[C@@H]1[C@@H]2[C@@H](O)C[C@@]2(C)[C@H]1CC[C@]2(O)C(=O)CO [hydrocortisone]
tolerance at high doses [1, 8]: rodents tolerate them
immunosuppression [2]: at high doses, it is immunosuppressive; also recorded: highly immunosuppressive

degradation by cultured endothelial cells [3]: Degradation also occurred
retention time in tissues / degradation, in words [6]: followed by maltose tripalmitate
SMILES: CCCCCCCCCCCCCCCC(=O)OC[C@H]1O[C@H](O[C@H]2[C@H](O)[C@@H](O)C(OC(=O)CCCCCCCCCCCCCCC)O[C@@H]2COC(=O)CCCCCCCCCCCCCCC)[C@H](O)[C@@H](O)[C@@H]1O (stereo partly shown) [maltose tripalmitate, maltose 1, 6, 6' tri palmitate]
% Inhibition of growth of Naik As cells in culture ([4]; 5 μg/ml, 30 hours): 30%
% Inhibition of growth of Naik As cells in culture ([4]; 5 μg/ml, 60 hours): 17%
% Inhibition of growth of Naik As cells in culture ([4]; 5 μg/ml, 105 hours): 10%
% Inhibition of growth of Naik As cells in culture ([4]; .625 μg/ml, 30 hours): 25%
% Inhibition of growth of Naik As cells in culture ([4]; .625 μg/ml, 60 hours): 11%
% Inhibition of growth of Naik As cells in culture ([4]; .625 μg/ml, 105 hours): 4%
in vitro growth of angiosarcoma cell line (Naik-AS), in words ([4]; time course in words): inhibited growth on the first 30 hours which response declined as it got degraded
Day of tumor appearance after implantation [5]: 14 to 16 days
antitumor activity, in words [7]: most active component

SMILES: C[C@]12CC[C@@H](O)C[C@H]1CC[C@@H]1[C@@H]2CC[C@@]2(C)[C@H]1CC[C@]2(O)C(=O)CO [tetra hydro S]
tolerance at high doses [1, 8]: rodents tolerate them
